Here are results for three compounds from patent EP0340198B1, “Immunoassay for the detection of alpha-haloacetamides” (priority 1988, dated 1989).

Assay [1] deals with affinity column prepared from the serum of the first bleed of the rabbit immunized with the alachlor-IgG conjugate. Description: affinity column extraction of alachlor and analogs from human urine. Type of assay: binding. How it is done:
Affinity Chromatography. The preparation of affinity columns using rabbit antisera was as follows: The rabbit IgG's were purified by passing 5 mL of the antiserum through a column containing 5 mL of the swelled protein A-agarose gel. By monitoring the absorbance at 280 nm in the column effluent, the non-bound proteins were removed by washing with PBS, and the IgG's were then eluted with acetic acid at pH 2.3 (0.58% acetic acid and 0.15 M NaCl). […] The reusable protein A-agarose column was stored in PBS containing 0.02% sodium azide at 4°C.
The protein A-purified IgG was immobilized onto Affigel-10 affinity support. Affigel-10 (5 mL) was washed 3 times with isopropyl alcohol and 3 times with cold distilled water in a Buchner funnel. The gel was then added to a solution of IgG (3 mL in 0.1 M HEPES buffer, pH 7.5) at 4°C. Following 4 hrs of stirring, the gel was precipitated by gentle centrifugation and washed with HEPES buffer (3 x 3 mL). The remaining active sites on the gel were blocked by resuspending the gel in water (2 mL) and adding ethanolamine HCl (0.5 mL, 1M), and stirring the mixture at 22°C for 1 hr. […] After binding the alachlor, the column was washed with water (2 mL/min) to remove unbound material and alachlor was eluted with 75% aqueous methanol.

Assay [2] concerns antibodies isolated from the serum of the first bleed of the rabbit. Description: affinity column binding of 14C-labeled analytes from aqueous solution. To be noted: for binding by the affinity column: 14C-labeled analogs, test of non-specific binding. How it is done: (§1) Affinity Chromatography. The preparation of affinity columns using rabbit antisera was as follows: The rabbit IgG's were purified by passing 5 mL of the antiserum through a column containing 5 mL of the swelled protein A-agarose gel. By monitoring the absorbance at 280 nm in the column effluent, the non-bound proteins were removed by washing with PBS, and the IgG's were then eluted with acetic acid at pH 2.3 (0.58% acetic acid and 0.15 M NaCl). The fractions containing the IgG's were combined and neutralized; based on the UV absorbance at 280 nm (absorbance/1.4 = mg/mL protein), approximately 33 mg of IgG were isolated from 5 mL of serum, which was then lyophilized and stored at -20°C. The reusable protein A-agarose column was stored in PBS containing 0.02% sodium azide at 4°C.
The protein A-purified IgG was immobilized onto Affigel-10 affinity support. Affigel-10 (5 mL) was washed 3 times with isopropyl alcohol and 3 times with cold distilled water in a Buchner funnel. The gel was then added to a solution of IgG (3 mL in 0.1 M HEPES buffer, pH 7.5) at 4°C. Following 4 hrs of stirring, the gel was precipitated by gentle centrifugation and washed with HEPES buffer (3 x 3 mL). The remaining active sites on the gel were blocked by resuspending the gel in water (2 mL) and adding ethanolamine HCl (0.5 mL, 1M), and stirring the mixture at 22°C for 1 hr. The affinity column was useful in adsorbing alachlor and other analytes from aqueous solutions. After binding the alachlor, the column was washed with water (2 mL/min) to remove unbound material and alachlor was eluted with 75% aqueous methanol.
Using the antibodies isolated from the serum of the first bleed of the rabbit, an affinity column for alachlor was constructed to study its utility as an isolation and purification tool. The IgG's in the serum of the rabbit immunized with the alachlor-IgG conjugate were purified with a protein A-agarose column. The purified IgG was then immobilized onto the Affigel-10 support. Alachlor (¹⁴C-labeled) in aqueous solution was passed through the column with a flow rate of 2 mL/min; the column was washed with water and eluted with 75% aqueous methanol. The radioactivity in the wash and eluent were determined by liquid scintillation counting. […] The capacity of the column was less than 1 µg, and once this level was exceeded, alachlor no longer bound to the column. The recovery of applied radioactivity generally ranged from 80% to 100%. In a second experiment, alachlor (0.5 µg) was dissolved into increasing volumes of water ranging from 1 mL to 100 mL.
To eliminate the possibility of non-specific binding of alachlor to the affinity column, other ¹⁴C-labeled analogs were also studied. These included acetanilide herbicides butachlor, acetochlor, metolachlor, and propachlor and the previously mentioned alachlor metabolites mercapturate and its methyl ester. The affinity column bound butachlor and acetochlor, but not metolachlor, propachlor, or mercapturate.

The test system of assay [3] is antibodies toward metolachlor. Put plainly: inhibition ELISA for metolachlor. Conditions: standard solutions at 10 and 50 ppb in DI water. Type of assay: binding, rabbits. An excerpt:
The generation of antibodies toward butachlor (2-chloro-2′,6′-diethyl-N-(butoxymethyl)acetanilide), amidochlor (2-chloro-2′,6′-diethyl-N-acetamidomethyl acetanilide), and metolachlor (2-chloro-2′-ethyl-6′-methyl-N-(2-methoxy-1-methylethyl)acetanilide) were accomplished following identical procedures as those described for alachlor. The individual 14C-labeled chloroacetanilide was covalently bound to HSA (human serum albumin) with AHT, and to sheep IgG with AMSA.
The hapten-IgG conjugates were used to immunize rabbits. The corresponding hapten-BSA conjugates were then utilized in checkerboard assays to determine the presence of desired antibodies in the antisera. An inhibition ELISA for butachlor was set up with antiserum, butachlor-HSA screening antigen, and butachlor. Similar assays were also set up for amidochlor and metolachlor.
The sensitivity of the inhibition ELISA for butachlor, amidochlor, and metolachlor was tested with respective standards prepared in DI water. Using the best antiserum, the butachlor ELISA produced an IC50 of 8 ppb.
The specificity of the ELISA for butachlor, amidochlor, and metolachlor were tested using standard solutions of alachlor, acetochlor, butachlor, amidochlor, metolachlor, and propachlor at concentrations of 10 and 50 ppb in DI water. At these concentrations, the ELISA assay for butachlor, amidochlor, and metolachlor was each inhibited only by the respective free hapten, and not by any of the other chloroacetanilides.
Background: In an ELISA, binding on a coated surface is turned into a signal by an enzyme label.

A further assay has as its system affinity column. Description: affinity column extraction of alachlor from rat urine containing alachlor metabolites. Type of assay: binding, rabbit. To be noted: 0.5 µg/2 mL Urine. The procedure:
as §1
The protein A-purified IgG was immobilized onto Affigel-10 affinity support. Affigel-10 (5 mL) was washed 3 times with isopropyl alcohol and 3 times with cold distilled water in a Buchner funnel. The gel was then added to a solution of IgG (3 mL in 0.1 M HEPES buffer, pH 7.5) at 4°C. Following 4 hrs of stirring, the gel was precipitated by gentle centrifugation and washed with HEPES buffer (3 x 3 mL). The remaining active sites on the gel were blocked by resuspending the gel in water (2 mL) and adding ethanolamine HCl (0.5 mL, 1M), and stirring the mixture at 22°C for 1 hr. […]

In the case of `CCOCN(C(=O)CCl)c1c(C)cccc1CC` [Acetochlor, acetochlor], in assay [1] (1.0 µg/2 mL human urine), the “% 14C Eluent (75% CH3OH)” value was 38.0% and the “% 14C Wash (H2O)” value came out at 61.0%. Also, in assay [2], the “binding by the affinity column” value was “bound”. In addition, in assay [3], the “inhibition of the ELISA assay for metolachlor” value (shortened to “inhibition of the ELISA assay”) was “not”.
For `CCc1cccc(CC)c1N(COC)C(=O)CCl` [Alachlor, α-chloro-2′,6′-diethyl-N-methoxymethyl acetanilide], the “% 14C Eluent (75% CH3OH)” value turned out to be 83.3% in the assay on affinity column, 123.0% in assay [1] (0.1 µg/2 mL human urine), 69.0% in assay [1] (0.6 µg/2 mL human urine) and 48.0% in assay [1] (1.4 µg/2 mL human urine). Moreover, the “% 14C Wash (H2O)” value with affinity column turned out to be 14.7%; in assay [1] (0.1 µg/2 mL human urine), 20.0%; in assay [1] (0.6 µg/2 mL human urine), 11.0%; in assay [1] (1.4 µg/2 mL human urine) it was 37.0%. Besides, the “extraction of alachlor by the column” value in assay [2] (0.5 µg per 1 mL to 0.5 µ/50 mL (0.5 ppm to 10 ppb) in water) is recorded as “effectively extracted”. Also, the “efficiency of alachlor extraction by the column reduced by” value in assay [2] (0.5 µg/100 mL (5 ppb) in water) turned out to be 50%. For the same compound, the “capacity of the column” value in assay [2] (alachlor) is recorded as “less than 1 µg”. The “inhibition of the ELISA assay” value in assay [3] is on record as “not”.
With `CC(C)N(C(=O)CCl)c1ccccc1` [Propachlor, propachlor], in assay [1] (1.2 µg/2 mL human urine), the “% 14C Eluent (75% CH3OH)” value was 11.0% and the “% 14C Wash (H2O)” value was 88.0%. Further, the “binding by the affinity column” value in assay [2] was “not”. For the same compound, the “inhibition of the ELISA assay” value in assay [3] was “not”.
